Results from patent US8287923B2, “Compositions and methods for treating immune disorders” (priority 2005, dated 2012).

Test system: normal human epidermal keratinocytes (NHEK)
Assay: Affymetrix gene array analysis, autoantigen gene expression
Assay type: cell-based
Details: 100 μM
Experimental: The gene array experiment was performed at the Core Facility of Genomics of the Medical College of Georgia, according to the instructions of the manufacturer (Affymetrix, Santa Clara, Calif.). Briefly, NHEK and OSC2 cells treated with 100 μM EGCG for different time period were extracted for total RNA, the RNA was processed for probes and hybridized with a cDNA microarray (HuG133A, Affymetrix) which represents 22,283 human series. DNA chips were read with a Hewlett-Packard GeneArray Scanner at a resolution of […] and were analyzed with the GeneSpring software (Silicon Genetics, Redwood City, Calif.). Details of this analysis will be published elsewhere (Hsu et al., manuscript in preparation).
Gene assays provide a valuable tool for studying the broad response of cells to agents, and we have used this approach to compare the differential effects of GTPP on gene expression in NHEK and human oral squamous carcinoma cells (Hsu, et al, manuscript in preparation). […] See also Hsu, S. et al. (2005) JPET 315:805-811, which is incorporated by reference in its entirety.

O=C(O[C@@H]1Cc2c(O)cc(O)cc2O[C@@H]1c1cc(O)c(O)c(O)c1)c1cc(O)c(O)c(O)c1 [EGCG, (−)-epigallocatechin-3-gallate]
60 kDa, SS-A/Ro (210438_x_at) expression, normalized (2 h): 0.92 | 60 kDa, SS-A/Ro (212852_s_at) expression, normalized (2 h): 0.98 | Ku autoantigen, 80 kDa (208642_s_at) expression, normalized (2 h): 1.14 | Ku autoantigen, 80 kDa (208643_s_at) expression, normalized (2 h): 1.40 | Nuclear antigen SP100 (202863_at) expression, normalized (2 h): 1.04 | Nuclear antigen SP100 (202864_s_at) expression, normalized (2 h): 1.21 | Nuclear antigen SP10075 kDa (213226_at) expression, normalized (2 h): 1.09 | RNA polymerase 1 (202692_s-at) expression, normalized (2 h): 0.48 | SS-B/La (201138_s_at) expression, normalized (2 h): 0.88 | SS-B/La (201139_s_at) expression, normalized (2 h): 0.74 | centromere protein C1 (20473_at) expression, normalized (2 h): 0.46 | coilin (203653_s_at) expression, normalized (2 h): 0.54 | coilin (203654_s_at) expression, normalized (2 h): 0.78 | fodrin-α (208611_s_at) expression, normalized (2 h): 0.75 | fodrin-α (215235_s_at) expression, normalized (2 h): 0.97 | golgin-67 (208797_s_at) expression, normalized (2 h): 0.71 | golgin-67 (208798_x_at) expression, normalized (2 h): 0.46 | golgin-67 (210425_x_at) expression, normalized (2 h): 0.47 | golgin-67 (213650_at) expression, normalized (2 h): 0.61 | scleroderma autoantigen 1, 75 kDa (213226_at) expression, normalized (2 h): 1.09 | spectrin-β non-erythrocyctic 1 (212071_s_at) expression, normalized (2 h): 0.92 | thyroid autoantigen 70 kDa (Ku antigen) (200792_at) expression, normalized (2 h): 1.19 | ADPRT [poly(ADP)-ribose polymerase] expression (2 h, vs time zero): 1.201 fold | ANAP12 expression (2 h, vs time zero): 0.991 fold | ANXA11 expression (2 h, vs time zero): 1.26 fold | CALR expression (2 h, vs time zero): 0.943 fold | CBARA1 expression (2 h, vs time zero): 0.773 fold | CENPA expression (2 h, vs time zero): 1.095 fold | CENPB expression (2 h, vs time zero): 0.773 fold | CENPC1 expression (2 h, vs time zero): 0.457 fold | CHD4 expression (2 h, vs time zero): 0.811 fold | COL17A1 expression (2 h, vs time zero): 1.102 fold | CTDSP1 expression (2 h, vs time zero): 1.00 fold | CTDSP2 expression (2 h, vs time zero): 1.21 fold | CTDSPL expression (2 h, vs time zero): 1.12 fold | DLAT expression (2 h, vs time zero): 0.924 fold | EPPK1 expression (2 h, vs time zero): 0.856 fold | FBL expression (2 h, vs time zero): 1.12 fold | FLJ31657 expression (2 h, vs time zero): 0.608 fold | FLNB (Filamin B, β) expression (2 h, vs time zero): 1.168 fold | FLNB (Filamin B, γ) expression (2 h, vs time zero): 0.92 fold | G22P1 (Thyroid autoantigen, 70 kDa, Ku antigen) expression (2 h, vs time zero): 1.185 fold | GMEB2 expression (2 h, vs time zero): 0.739 fold | GOLGA1 expression (2 h, vs time zero): 0.182 fold | GOLGA2 expression (2 h, vs time zero): 0.642 fold | GOLGA3 expression (2 h, vs time zero): 0.58 fold | GOLGA4 expression (2 h, vs time zero): 0.748 fold | GOLGA5 expression (2 h, vs time zero): 0.928 fold | GOLGB1 expression (2 h, vs time zero): 0.704 fold | HARS expression (2 h, vs time zero): 1.11 fold | HARSL expression (2 h, vs time zero): 1.05 fold | HSA6591 expression (2 h, vs time zero): 0.835 fold | HUMAUANTIG expression (2 h, vs time zero): 0.779 fold | IMP-2 expression (2 h, vs time zero): 1.366 fold | LAD1 expression (2 h, vs time zero): 0.681 fold | LMO4 expression (repeat 1) (2 h, vs time zero): 0.867 fold | LMO4 expression (repeat 2) (2 h, vs time zero): 1.199 fold | MGC5560 expression (repeat 1) (2 h, vs time zero): 1.161 fold | MGC5560 expression (repeat 2) (2 h, vs time zero): 0.932 fold | NS (Nucleostemin) expression (2 h, vs time zero): 0.95 fold | PDHB expression (2 h, vs time zero): 1.14 fold | PDX1 expression (2 h, vs time zero): 0.765 fold | PMSCL1, 75 kDa expression (2 h, vs time zero): 1.09 fold | PMSCL2 expression (2 h, vs time zero): 0.938 fold | POLR1B expression (2 h, vs time zero): 1.03 fold | POLR1D expression (2 h, vs time zero): 0.96 fold | POLR2A expression (repeat 1) (2 h, vs time zero): 1.29 fold | POLR2A expression (repeat 2) (2 h, vs time zero): 0.45 fold | POLR2B expression (2 h, vs time zero): 1.02 fold | POLR2C expression (2 h, vs time zero): 1.60 fold | POLR2D expression (2 h, vs time zero): 0.95 fold | POLR2E expression (2 h, vs time zero): 0.70 fold | POLR2F expression (2 h, vs time zero): 1.00 fold | POLR2G expression (2 h, vs time zero): 1.02 fold | POLR2H expression (2 h, vs time zero): 0.85 fold | POLR3C expression (2 h, vs time zero): 0.73 fold | POLR3G expression (2 h, vs time zero): 1.00 fold | PSME3 expression (2 h, vs time zero): 1.151 fold | RALY expression (2 h, vs time zero): 0.752 fold | SART1 expression (2 h, vs time zero): 1.188 fold | SLC25A16 expression (2 h, vs time zero): 0.886 fold | SNRP70 expression (2 h, vs time zero): 1.01 fold | SNRPA expression (2 h, vs time zero): 0.93 fold | SNRPB2 expression (2 h, vs time zero): 0.67 fold | SNRPB expression (repeat 1) (2 h, vs time zero): 0.95 fold | SNRPB expression (repeat 2) (2 h, vs time zero): 0.79 fold | SNRPC expression (2 h, vs time zero): 1.08 fold | SNRPD1 expression (repeat 1) (2 h, vs time zero): 1.285 fold | SNRPD1 expression (repeat 2) (2 h, vs time zero): 0.676 fold | SOX13 expression (2 h, vs time zero): 0.771 fold | SP100 expression (repeat 1) (2 h, vs time zero): 1.037 fold | SP100 expression (repeat 2) (2 h, vs time zero): 1.205 fold | SP110 expression (repeat 1) (2 h, vs time zero): 1.702 fold | SP110 expression (repeat 2) (2 h, vs time zero): 1.804 fold | SP110 expression (repeat 3) (2 h, vs time zero): 1.026 fold | SPTAN1 (α-fodrin) expression (repeat 1) (2 h, vs time zero): 0.75 fold | SPTAN1 (α-fodrin) expression (repeat 2) (2 h, vs time zero): 0.97 fold | SPTBN expression (2 h, vs time zero): 0.92 fold | SSA2 (autoantigen SS-A/Ro) expression (repeat 2) (2 h, vs time zero): 0.919 fold | SSA2 expression (repeat 1) (2 h, vs time zero): 0.335 fold | SSA2 expression (repeat 3) (2 h, vs time zero): 0.957 fold | SSA2 expression (repeat 4) (2 h, vs time zero): 0.98 fold | SSB (autoantigen La) expression (repeat 1) (2 h, vs time zero): 0.878 fold | SSB (autoantigen La) expression (repeat 2) (2 h, vs time zero): 0.739 fold | SSNA1 expression (2 h, vs time zero): 1.17 fold | SSSCA1 expression (2 h, vs time zero): 1.694 fold | STRN3 expression (2 h, vs time zero): 0.623 fold | TOP1 expression (repeat 1) (2 h, vs time zero): 1.09 fold | TOP1 expression (repeat 2) (2 h, vs time zero): 0.62 fold | UBTF expression (2 h, vs time zero): 0.484 fold | XRCC5 (Ku autoantigen, 80 kDa) expression (repeat 1) (2 h, vs time zero): 1.403 fold | XRCC5 (Ku autoantigen, 80 kDa) expression (repeat 2) (2 h, vs time zero): 1.141 fold | dJ963E22.1 expression (2 h, vs time zero): 0.864 fold | α-NAC expression (2 h, vs time zero): 0.521 fold | 60 kDa, SS-A/Ro (210438_x_at) expression, normalized (6 h): 0.69
